# Patent US20230373985A1 (Origenis Gmbh, priority 2020, published 2023)
# Tests used:
# [1] = target: T1, G2019S human LRRK2, catalytic site (Homo sapiens, UniProt Q5S007, G2019S); test: TR-FRET LanthaScreen Eu Kinase Binding Assay, LRRK2 G2019S; conditions: LRRK2(G2019); one range stated for wt and G2019; read-out: IC50, Activity Toward LRRK2(G2019)
# T1 construct: G2019S human LRRK2, catalytic site; purchased ThermoFisher
# Summary of the method: (§1)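 NUAK1: 8 nM enzyme, 2 nM Eu-anti-His antibody, 5 nM Tracer 236. LRRK2 wt/G2019S: 5 nM enzyme, 2 nM Eu-anti-GST antibody, 10 nM Tracer 236. Kinase Buffer A, 1 h RT, TR-FRET ratio.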
# [2] = target: T2, wt human NUAK1, full length (Homo sapiens, UniProt O60285); test: TR-FRET LanthaScreen Eu Kinase Binding Assay, NUAK1; conditions: read-out: IC50, Activity Toward NUAK1
# T2 construct: 8 nM wt human NUAK1, full length (ThermoFisher/USA); purchased ThermoFisher
# T2 sequence (O60285 1-661): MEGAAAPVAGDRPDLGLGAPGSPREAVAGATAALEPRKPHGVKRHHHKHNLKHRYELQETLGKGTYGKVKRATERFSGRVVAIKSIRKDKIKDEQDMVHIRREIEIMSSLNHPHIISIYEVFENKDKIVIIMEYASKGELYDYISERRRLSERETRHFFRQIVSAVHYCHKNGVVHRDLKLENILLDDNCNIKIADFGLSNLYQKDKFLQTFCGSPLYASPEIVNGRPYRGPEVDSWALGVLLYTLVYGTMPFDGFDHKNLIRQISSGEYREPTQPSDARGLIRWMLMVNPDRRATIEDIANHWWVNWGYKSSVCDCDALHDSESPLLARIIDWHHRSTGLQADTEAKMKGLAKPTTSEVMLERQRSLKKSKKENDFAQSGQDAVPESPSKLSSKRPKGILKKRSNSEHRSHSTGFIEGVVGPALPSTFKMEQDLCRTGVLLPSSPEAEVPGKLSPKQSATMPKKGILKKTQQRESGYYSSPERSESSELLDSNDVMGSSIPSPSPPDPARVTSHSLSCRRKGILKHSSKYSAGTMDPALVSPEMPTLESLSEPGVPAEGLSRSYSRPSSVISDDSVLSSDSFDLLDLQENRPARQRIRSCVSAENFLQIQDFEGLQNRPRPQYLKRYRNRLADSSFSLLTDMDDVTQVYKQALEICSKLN
# Summary of the method: as §1
# [3] = target: T3, wt human TYK2, catalytic site (Homo sapiens, UniProt P29597); test: HTRF KinEASE assay, TYK2; assay type: biochemical; conditions: 1 μM ATP; read-out: IC50, Activity Toward TYK2
# T3 construct: wt human TYK2, catalytic site; purchased SignalChem
# T3 sequence (P29597 897-1176 limits assumed): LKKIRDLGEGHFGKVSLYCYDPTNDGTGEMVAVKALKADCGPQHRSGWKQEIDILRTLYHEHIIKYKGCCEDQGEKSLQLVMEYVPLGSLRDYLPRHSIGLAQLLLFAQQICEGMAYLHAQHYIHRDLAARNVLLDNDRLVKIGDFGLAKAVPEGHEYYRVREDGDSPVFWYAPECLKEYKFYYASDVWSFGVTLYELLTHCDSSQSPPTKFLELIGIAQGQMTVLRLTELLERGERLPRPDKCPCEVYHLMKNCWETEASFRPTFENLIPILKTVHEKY
# Summary of the method: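 Kinase reaction run at room temperature for at least 30 min: 2 nM TYK2 with 1 μM ATP, or 1 nM JAK2 with 100 μM ATP, each with 1 μM biotin-TK substrate. Phosphorylation detected by HTRF (60 min antibody/XL665) and evaluated from emission ratios.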
# [4] = target: T4, wt human LRRK2, catalytic site (Homo sapiens, UniProt Q5S007); test: TR-FRET LanthaScreen Eu Kinase Binding Assay, LRRK2 wt; conditions: one range stated for wt and G2019, read-out: IC50, Activity Toward LRRK2(Wt)
# T4 construct: 5 nM wt human LRRK2, catalytic site; purchased ThermoFisher
# Summary of the method: as §1
# [5] = target: T5, wt human JAK1, catalytic site (Homo sapiens, UniProt P23458); test: HTRF KinEASE assay, JAK1; assay type: biochemical; conditions: 2.5 μM ATP; read-out: IC50, Activity Toward JAK1
# T5 construct: wt human JAK1, catalytic site; purchased ThermoFisher
# Summary of the method: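 Compounds in DMSO dilution were mixed with kinase, biotin-TK substrate and ATP and reacted for ≥30 min at room temperature. Detection reagents (antibody, streptavidin-XL665) were read 60 min later as HTRF, with emission ratios analysed per KinEASE protocol.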
# T1 sequence (Q5S007 970-2527 G2019S limits assumed): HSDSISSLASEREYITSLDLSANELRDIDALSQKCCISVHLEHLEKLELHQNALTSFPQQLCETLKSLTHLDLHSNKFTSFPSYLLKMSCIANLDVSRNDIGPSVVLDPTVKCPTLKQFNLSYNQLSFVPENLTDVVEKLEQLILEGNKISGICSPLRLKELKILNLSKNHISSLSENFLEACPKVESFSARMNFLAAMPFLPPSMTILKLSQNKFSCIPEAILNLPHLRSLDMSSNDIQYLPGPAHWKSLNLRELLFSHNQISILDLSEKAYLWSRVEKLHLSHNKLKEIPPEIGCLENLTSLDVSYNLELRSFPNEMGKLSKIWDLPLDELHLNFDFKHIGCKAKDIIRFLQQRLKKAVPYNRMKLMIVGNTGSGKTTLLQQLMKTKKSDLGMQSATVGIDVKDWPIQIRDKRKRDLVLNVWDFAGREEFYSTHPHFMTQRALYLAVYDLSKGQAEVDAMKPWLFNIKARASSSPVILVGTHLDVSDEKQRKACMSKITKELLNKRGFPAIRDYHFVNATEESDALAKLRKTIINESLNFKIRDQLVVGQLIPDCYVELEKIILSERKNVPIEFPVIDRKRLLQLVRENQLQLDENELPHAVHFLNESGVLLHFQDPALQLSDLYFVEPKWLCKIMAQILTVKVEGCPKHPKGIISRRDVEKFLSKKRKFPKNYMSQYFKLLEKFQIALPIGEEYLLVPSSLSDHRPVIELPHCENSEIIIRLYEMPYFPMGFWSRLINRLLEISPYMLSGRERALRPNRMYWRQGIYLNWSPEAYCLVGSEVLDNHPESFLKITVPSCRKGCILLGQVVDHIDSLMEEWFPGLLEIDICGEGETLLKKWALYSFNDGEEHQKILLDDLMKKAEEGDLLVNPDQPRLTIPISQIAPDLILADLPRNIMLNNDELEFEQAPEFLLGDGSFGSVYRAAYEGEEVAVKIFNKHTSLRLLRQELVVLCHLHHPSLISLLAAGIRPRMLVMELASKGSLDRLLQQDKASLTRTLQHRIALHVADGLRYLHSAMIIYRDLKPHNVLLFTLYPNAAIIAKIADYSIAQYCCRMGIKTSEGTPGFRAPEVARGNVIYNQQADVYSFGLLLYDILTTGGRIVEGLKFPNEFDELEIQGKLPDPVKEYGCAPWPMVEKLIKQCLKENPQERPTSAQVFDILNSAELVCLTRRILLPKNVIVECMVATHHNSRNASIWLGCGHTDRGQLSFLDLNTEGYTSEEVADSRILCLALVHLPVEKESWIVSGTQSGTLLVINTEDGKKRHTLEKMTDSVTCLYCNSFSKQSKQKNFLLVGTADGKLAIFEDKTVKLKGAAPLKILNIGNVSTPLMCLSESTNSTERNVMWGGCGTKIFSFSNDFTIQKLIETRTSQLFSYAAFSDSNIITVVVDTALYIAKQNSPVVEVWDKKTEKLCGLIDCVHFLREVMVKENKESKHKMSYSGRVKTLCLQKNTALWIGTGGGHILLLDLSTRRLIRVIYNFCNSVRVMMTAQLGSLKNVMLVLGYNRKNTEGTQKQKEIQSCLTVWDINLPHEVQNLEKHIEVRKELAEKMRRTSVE
# T4 sequence (Q5S007 970-2527 limits assumed): as the sequence (Q5S007 970-2527 G2019S limits assumed) above, with S1050G counted along it
# T5 sequence (P23458 875-1153 limits assumed): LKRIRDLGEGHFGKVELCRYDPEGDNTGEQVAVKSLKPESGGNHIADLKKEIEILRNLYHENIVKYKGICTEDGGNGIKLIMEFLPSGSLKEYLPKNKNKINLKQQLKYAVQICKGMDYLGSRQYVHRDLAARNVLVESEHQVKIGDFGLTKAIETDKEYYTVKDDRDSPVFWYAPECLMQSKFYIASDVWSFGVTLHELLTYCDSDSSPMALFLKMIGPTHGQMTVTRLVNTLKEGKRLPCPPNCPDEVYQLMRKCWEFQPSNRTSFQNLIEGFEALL
SMILES,IC50 [1] [nM],IC50 [2] [nM],IC50 [3] [nM],IC50 [4] [nM],IC50 [5] [nM]
"Cc1ccn(-c2ccc(Nc3cn(-c4c(F)cccc4Cl)nc3C(N)=O)cc2)n1 [compound 232, 1-(2-chloro-6-fluorophenyl)-4-((4-(3-methyl-1H-pyrazol-1-yl)phenyl)amino)-1H-pyrazole-3-carboxamide]",100 to 1000,100 to 1000,10 to 100,100 to 1000,10 to 100
CCc1nc(C(F)(F)F)nn1-c1ccc(Nc2cn(-c3c(F)cccc3F)nc2C(N)=O)cc1 [compound 284],100 to 1000,100 to 1000,10 to 100,100 to 1000,100 to 1000
"Cn1nc(C(F)(F)F)nc1-c1ccc(Nc2cn(-c3c(F)cccc3F)nc2C(N)=O)cc1 [compound 285, 1-(2,6-difluorophenyl)-4-((4-(1-methyl-3-(trifluoromethyl)-1H-1,2,4-triazol-5-yl)phenyl)amino)-1H-pyrazole-3-carboxamide]",100 to 1000,100 to 1000,10 to 100,100 to 1000,10 to 100
"CCc1ccnn1-c1ccc(Nc2cn(-c3c(F)cccc3Cl)nc2C(N)=O)cc1 [compound 286, 1-(2-chloro-6-fluorophenyl)-4-((4-(5-ethyl-1H-pyrazol-1-yl)phenyl)amino)-1H-pyrazole-3-carboxamide]",100 to 1000,100 to 1000,10 to 100,100 to 1000,100 to 1000
"CCc1ccnn1-c1ccc(Nc2cn(-c3c(F)cccc3F)nc2C(N)=O)cc1 [compound 287, 1-(2,6-difluorophenyl)-4-((4-(5-ethyl-1H-pyrazol-1-yl)phenyl)amino)-1H-pyrazole-3-carboxamide]",100 to 1000,10 to 100,100 to 1000,100 to 1000,100 to 1000
"CN1CCC(Oc2ccc(Nc3cn(-c4c(F)cccc4F)nc3C(N)=O)cc2)CC1 [compound 288, 1-(2,6-difluorophenyl)-4-((4-((1-methylpiperidin-4-yl)oxy)phenyl)amino)-1H-pyrazole-3-carboxamide]",100 to 1000,10 to 100,10 to 100,100 to 1000,100 to 1000
"CN1CCC(Oc2ccc(Nc3cn(-c4c(F)cccc4Cl)nc3C(N)=O)cc2)CC1 [compound 295, 1-(2-chloro-6-fluorophenyl)-4-((4-((1-methylpiperidin-4-yl)oxy)phenyl)amino)-1H-pyrazole-3-carboxamide]",100 to 1000,10 to 100,10 to 100,100 to 1000,10 to 100
"Cc1ccnnc1-c1ccc(Nc2cn(-c3c(F)cccc3F)nc2C(N)=O)cc1 [compound 296, 1-(2,6-difluorophenyl)-4-((4-(4-methylpyridazin-3-yl)phenyl)amino)-1H-pyrazole-3-carboxamide]",100 to 1000,100 to 1000,10 to 100,100 to 1000,100 to 1000
"Cn1cc(C(F)(F)F)nc1-c1ccc(Nc2cn(-c3c(F)cccc3F)nc2C(N)=O)cc1 [compound 308, 1-(2,6-difluorophenyl)-4-((4-(1-methyl-4-(trifluoromethyl)-1H-imidazol-2-yl)phenyl)amino)-1H-pyrazole-3-carboxamide]",100 to 1000,100 to 1000,10 to 100,100 to 1000,10 to 100
"CC(C)n1ncnc1-c1ccc(Nc2cn(-c3c(F)cccc3F)nc2C(N)=O)cc1 [compound 309, 1-(2,6-difluorophenyl)-4-((4-(1-isopropyl-1H-1,2,4-triazol-5-yl)phenyl)amino)-1H-pyrazole-3-carboxamide]",10 to 100,100 to 1000,100 to 1000,10 to 100,100 to 1000
"CC(=O)N1CC(n2cc(C(F)(F)F)nc2-c2ccc(Nc3cn(-c4c(Cl)cccc4Cl)nc3C(N)=O)cc2)C1 [compound 342, 4-((4-(1-(1-acetylazetidin-3-yl)-4-(trifluoromethyl)-1H-imidazol-2-yl)phenyl)amino)-1-(2,6-dichlorophenyl)-1H-pyrazole-3-carboxamide]",100 to 1000,100 to 1000,< 10,100 to 1000,100 to 1000
"N#Cc1cn(C2COC2)c(-c2ccc(Nc3cn(-c4c(Cl)cccc4Cl)nc3C(N)=O)cc2)n1 [compound 349, 4-((4-(4-cyano-1-(oxetan-3-yl)-1H-imidazol-2-yl)phenyl)amino)-1-(2,6-dichlorophenyl)-1H-pyrazole-3-carboxamide]",100 to 1000,100 to 1000,< 10,100 to 1000,100 to 1000

# Second part, the compound after the results:
IC50 [1] [nM],IC50 [2] [nM],IC50 [3] [nM],IC50 [4] [nM],IC50 [5] [nM],SMILES
100 to 1000,100 to 1000,10 to 100,100 to 1000,10 to 100,"CN(C)C1CCN(C(=O)c2ccc(Nc3cn(-c4c(Cl)cccc4Cl)nc3C(N)=O)cc2)C1 (centres unmarked) [compound 248, 1-(2,6-dichlorophenyl)-4-((4-(3-(dimethylamino)pyrrolidine-1-carbonyl)phenyl)amino)-1H-pyrazole-3-carboxamide]"
100 to 1000,100 to 1000,< 10,100 to 1000,100 to 1000,"NC(=O)c1nn(-c2c(Cl)cccc2Cl)cc1Nc1ccc(C(=O)N2CCC(N3CCCC3)C2)cc1 (centres unmarked) [compound 249, 4-((4-([1,3′-bipyrrolidine]-1′-carbonyl)phenyl)amino)-1-(2,6-dichlorophenyl)-1H-pyrazole-3-carboxamide]"
100 to 1000,100 to 1000,10 to 100,100 to 1000,10 to 100,"CN(C)[C@@H]1CCN(C(=O)c2ccc(Nc3cn(-c4c(Cl)cccc4Cl)nc3C(N)=O)cc2)C1 [compound 313, (R)-1-(2,6-dichlorophenyl)-4-((4-(3-(dimethylamino)pyrrolidine-1-carbonyl)phenyl)amino)-1H-pyrazole-3-carboxamide]"
100 to 1000,100 to 1000,10 to 100,100 to 1000,10 to 100,"NC(=O)c1nn(-c2c(Cl)cccc2Cl)cc1Nc1ccc(C(=O)N2CCC(N)C2)cc1 (centres unmarked) [compound 317, 4-((4-(3-aminopyrrolidine-1-carbonyl)phenyl)amino)-1-(2,6-dichlorophenyl)-1H-pyrazole-3-carboxamide]"
100 to 1000,100 to 1000,10 to 100,100 to 1000,10 to 100,"NC(=O)c1nn(-c2c(Cl)cccc2Cl)cc1Nc1ccc(C(=O)N2CC[C@@H](N)C2)cc1 [compound 318, (R)-4-((4-(3-aminopyrrolidine-1-carbonyl)phenyl)amino)-1-(2,6-dichlorophenyl)-1H-pyrazole-3-carboxamide]"
100 to 1000,100 to 1000,10 to 100,100 to 1000,100 to 1000,"CC(C)(C)OC(=O)NC1CCN(C(=O)c2ccc(Nc3cn(-c4c(Cl)cccc4Cl)nc3C(N)=O)cc2)C1 (centres unmarked) [compound 323, tert-butyl_(1-(4-((3-carbamoyl-1-(2,6-dichlorophenyl)-1H-pyrazol-4-yl)amino)benzoyl)pyrrolidin-3-yl)carbamate]"
100 to 1000,100 to 1000,10 to 100,100 to 1000,100 to 1000,"NC(=O)c1nn(-c2c(Cl)cccc2Cl)cc1Nc1ccc(C(=O)N2CC[C@@H](N3CCCC3)C2)cc1 [compound 331, (R)-4-((4-([1,3′-bipyrrolidine]-1′-carbonyl)phenyl)amino)-1-(2,6-dichlorophenyl)-1H-pyrazole-3-carboxamide]"
